# Biological target: human PHD2181-417 (Homo sapiens (Human), UniProt Q9GZT9)
# Experiment: PHD2 enzyme activity assay ([14C]-succinic acid production);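 also: reaction ran 10 min with compound in Tris pH 7.5 buffer with catalase, DTT and ascorbate, labelled succinate freed of leftover 2-oxoglutarate by DNP precipitation, then beta counted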
# Type: biochemical
# Settings: PHD2181-417 polypeptide, HIF-1α peptide 10 μM, [5-14C]-2-oxoglutaric acid; 30 min pre-incubation; tested 10 μM to 3 nM
# Chain of human PHD2181-417 (Q9GZT9 181-417): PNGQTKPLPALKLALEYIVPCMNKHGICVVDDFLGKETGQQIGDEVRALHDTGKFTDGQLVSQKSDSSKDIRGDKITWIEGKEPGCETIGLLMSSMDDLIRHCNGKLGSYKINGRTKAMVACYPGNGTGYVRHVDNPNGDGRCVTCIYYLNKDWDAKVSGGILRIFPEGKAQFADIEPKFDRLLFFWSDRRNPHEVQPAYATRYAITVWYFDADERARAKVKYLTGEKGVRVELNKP
row,Compound,Enzyme pIC50
1,"CC(C)Sc1cc2[nH]c(-n3cc(C(=O)O)cn3)nc2cc1C(F)(F)F [Example 73, 1-(6-Isopropylsulfanyl-5-trifluoromethyl-1H-benzoimidazol-2-yl)-1H-pyrazole-4-carboxylic Acid]",7.2
2,"CC(C)Sc1cc2[nH]c(-n3cc(C(=O)O)cn3)nc2cc1OC(F)(F)F [Example 80, 1-(6-Isopropylsulfanyl-5-trifluoromethoxy-1H-benzoimidazol-2-yl)-1H-pyrazole-4-carboxylic Acid]",7
3,"CCCSc1cc2[nH]c(-n3cc(C(=O)O)cn3)nc2cc1OC(F)(F)F [Example 81, 1-(6-Propylsulfanyl-5-trifluoromethoxy-1H-benzoimidazol-2-yl)-1H-pyrazole-4-carboxylic Acid]",7
4,"CC(C)S(=O)(=O)c1cc2[nH]c(-n3cc(C(=O)O)cn3)nc2cc1C(F)(F)F [Example 103, 1-[6-(Propane-2-sulfonyl)-5-trifluoromethyl-1H-benzoimidazol-2-yl]-1H-pyrazole-4-carboxylic Acid]",7.4
5,"CCCS(=O)(=O)c1cc2[nH]c(-n3cc(C(=O)O)cn3)nc2cc1C(F)(F)F [Example 104, 1-[6-(Propane-1-sulfonyl)-5-trifluoromethyl-1H-benzoimidazol-2-yl]-1H-pyrazole-4-carboxylic Acid]",7.5
6,"CC(C)S(=O)(=O)c1cc2[nH]c(-n3cc(C(=O)O)cn3)nc2cc1OC(F)(F)F [Example 105, 1-[6-(Propane-2-sulfonyl)-5-trifluoromethoxy-1H-benzoimidazol-2-yl]-1H-pyrazole-4-carboxylic Acid]",7.4
7,"CC(C)Sc1cc2nc(-n3cc(C(=O)O)cn3)[nH]c2cc1F [Example 153, 1-(6-Fluoro-5-isopropylsulfanyl-1H-benzoimidazol-2-yl)-1H-pyrazole-4-carboxylic Acid]",6.9
8,"CCCS(=O)(=O)c1cc2nc(-n3cc(C(=O)O)cn3)[nH]c2cc1F [Example 157, 1-(6-Fluoro-5-propylsulfonyl-1H-benzoimidazol-2-yl)-1H-pyrazole-4-carboxylic Acid]",7.4
9,"CC(C)S(=O)(=O)c1cc2nc(-n3cc(C(=O)O)cn3)[nH]c2cc1F [Example 158, 1-(6-Fluoro-5-isopropylsulfonyl-1H-benzoimidazol-2-yl)-1H-pyrazole-4-carboxylic Acid]",7.3
10,"O=C(O)c1cnn(-c2nc3cc(SCc4ccc(C(F)(F)F)cc4)c(Cl)cc3[nH]2)c1 [Example 170, 1-[6-Chloro-5-(4-trifluoromethyl-benzylsulfanyl)-1H-benzoimidazol-2-yl]-1H-pyrazole-4-carboxylic Acid]",6.7
11,"O=C(O)c1cnn(-c2nc3cc(SCc4ccc(C(F)(F)F)cc4C(F)(F)F)c(Cl)cc3[nH]2)c1 [Example 171, 1-[5-(2,4-Bis-trifluoromethyl-benzylsulfanyl)-6-chloro-1H-benzoimidazol-2-yl]-1H-pyrazole-4-carboxylic Acid]",6.7

# Same assay, conditions: PHD2181-417 polypeptide, HIF-1α peptide 10 μM, [5-14C]-2-oxoglutaric acid; 30 min pre-incubation; tested 10 μM to 3 nM; read-out: Enzyme pIC50 (converted)
row,Compound,IC50 [nM]
1,"Cc1ccc(CSc2cc3nc(-n4cc(C(=O)O)cn4)[nH]c3cc2Cl)cc1 [Example 169, 1-[6-Chloro-5-(4-methyl-benzylsulfanyl)-1H-benzoimidazol-2-yl]-1H-pyrazole-4-carboxylic Acid]",200

# System: Hep-3B cells
# Experiment: Cellular assay: EPO secretion in Hep-3B cells
# Type: cell-based, human
# Set-up: EPO secretion, % of control compound: dose or concentration left out as unconfirmed
# Settings: 24 h, compound at 100 μM (10 μM or 100 μM), EPO secretion as percentage of control compound 7-[(4-Chloro-phenyl)-(5-methyl-isoxazol-3-ylamino)-methyl]-quinolin-8-ol
row,Compound,Cellular % EPO Stimulation [%]
1,"O=C(O)c1cnn(-c2nc3ccccc3[nH]2)c1 [Example 1, 1-(1H-Benzoimidazol-2-yl)-1H-pyrazole-4-carboxylic Acid]",7.1
2,"Cc1cc2nc(-n3cc(C(=O)O)cn3)[nH]c2cc1C [Example 5, 1-(5,6-Dimethyl-1H-benzoimidazol-2-yl)-1H-pyrazole-4-carboxylic Acid]",2.1
3,"O=C(O)c1cnn(-c2nc3cc(Br)ccc3[nH]2)c1 [Example 6, 1-(5-Bromo-1H-benzoimidazol-2-yl)-1H-pyrazole-4-carboxylic Acid]",9.91
4,"COc1ccc2[nH]c(-n3cc(C(=O)O)cn3)nc2c1 [Example 7, 1-(5-Methoxy-1H-benzoimidazol-2-yl)-1H-pyrazole-4-carboxylic Acid]",16.8
5,"O=C(O)c1cnn(-c2nc3c(Cl)cc(C(F)(F)F)cc3[nH]2)c1 [Example 8, 1-(4-Chloro-6-trifluoromethyl-1H-benzoimidazol-2-yl)-1H-pyrazole-4-carboxylic Acid]",20.97
6,"COc1cc2nc(-n3cc(C(=O)O)cn3)[nH]c2cc1OC [Example 9, 1-(5,6-Dimethoxy-1H-benzoimidazol-2-yl)-1H-pyrazole-4-carboxylic Acid]",4.26
7,"Cc1ccc2[nH]c(-n3cc(C(=O)O)cn3)nc2c1C [Example 10, 1-(4,5-Dimethyl-1H-benzoimidazol-2-yl)-1H-pyrazole-4-carboxylic Acid]",10.7
8,"O=C(O)c1cnn(-c2nc3cc(OC(F)(F)F)ccc3[nH]2)c1 [Example 11, 1-(5-Trifluoromethoxy-1H-benzoimidazol-2-yl)-1H-pyrazole-4-carboxylic Acid]",123.68
9,"O=C(O)c1cnn(-c2nc3cc(-c4cccc(OCc5cccc(Cl)c5)c4)ccc3[nH]2)c1 [Example 12, 1-{5-[3-(3-Chloro-benzyloxy)-phenyl]-1H-benzoimidazol-2-yl}-1H-pyrazole-4-carboxylic Acid]",8.76
10,"O=C(O)c1cnn(-c2nc3cc(-c4cccc(OCc5ccccc5Cl)c4)ccc3[nH]2)c1 [Example 13, 1-{5-[3-(2-Chloro-benzyloxy)-phenyl]-1H-benzoimidazol-2-yl}-1H-pyrazole-4-carboxylic Acid]",18
11,"O=C(O)c1cnn(-c2nc3cc(-c4cccc(OCc5ccccc5)c4)ccc3[nH]2)c1 [Example 15, 1-[5-(3-Benzyloxy-phenyl)-1H-benzoimidazol-2-yl]-1H-pyrazole-4-carboxylic Acid]",10.77
12,"O=C(O)c1cnn(-c2nc3cc(-c4ccc(OCc5ccccc5)cc4)ccc3[nH]2)c1 [Example 16, 1-[5-(4-Benzyloxy-phenyl)-1H-benzoimidazol-2-yl]-1H-pyrazole-4-carboxylic Acid]",6.97
13,"O=C(O)c1cnn(-c2nc3cc(-c4cccc(C(F)(F)F)c4)ccc3[nH]2)c1 [Example 17, 1-[5-(3-Trifluoromethyl-phenyl)-1H-benzoimidazol-2-yl]-1H-pyrazole-4-carboxylic Acid]",5.8
14,"O=C(O)c1cnn(-c2nc3cc(-c4ccc(Cl)c(Cl)c4)ccc3[nH]2)c1 [Example 18, 1-[5-(3,4-Dichloro-phenyl)-1H-benzoimidazol-2-yl]-1H-pyrazole-4-carboxylic Acid]",15.3
15,"O=C(O)c1cn(-c2nc3cc(Br)ccc3[nH]2)nc1C(F)(F)F [Example 19, 1-(5-Bromo-1H-benzoimidazol-2-yl)-3-trifluoromethyl-1H-pyrazole-4-carboxylic Acid]",20.52
16,"Cc1nn(-c2nc3cc(Br)ccc3[nH]2)c(C)c1C(=O)O [Example 21, 1-(5-Bromo-1H-benzoimidazol-2-yl)-3,5-dimethyl-1H-pyrazole-4-carboxylic Acid]",7.24
17,"O=C(O)c1cnn(-c2nc3cc(-c4ccc(O)cc4)ccc3[nH]2)c1 [Example 23, 1-[5-(4-Hydroxy-phenyl)-1H-benzoimidazol-2-yl]-1H-pyrazole-4-carboxylic Acid]",6.49
18,"O=C(O)c1cnn(-c2nc3cc(-c4cccc(O)c4)ccc3[nH]2)c1 [Example 24, 1-[5-(3-Hydroxy-phenyl)-1H-benzoimidazol-2-yl]-1H-pyrazole-4-carboxylic Acid]",11.15
19,"O=C(O)c1cnn(-c2nc3cc(Cl)ccc3[nH]2)c1 [Example 25, 1-(5-Chloro-1H-benzoimidazol-2-yl)-1H-pyrazole-4-carboxylic Acid]",71.87
20,"Cc1c(Br)cc2nc(-n3cc(C(=O)O)cn3)[nH]c2c1C [Example 26, 1-(5-Bromo-6,7-dimethyl-1H-benzoimidazol-2-yl)-1H-pyrazole-4-carboxylic Acid]",11.9

# Same assay, conditions: Homo sapiens, Hep3B, 24 h, EPO secretion as percentage of control compound 7-[(4-Chloro-phenyl)-(5-methyl-isoxazol-3-ylamino)-methyl]-quinolin-8-ol, read-out: Cellular % EPO Stimulation
row,Compound,"EPO secretion, % of control compound [%]"
1,"O=C(O)c1cnn(-c2nc3cc(C(F)(F)F)ccc3[nH]2)c1 [Example 3, 1-(5-Trifluoromethyl-1H-benzoimidazol-2-yl)-1H-pyrazole-4-carboxylic Acid]",110
2,"O=C(O)c1cnn(-c2nc3cc(-c4cccc(OCc5ccc(Cl)cc5)c4)ccc3[nH]2)c1 [Example 14, 1-{5-[3-(4-Chloro-benzyloxy)-phenyl]-1H-benzoimidazol-2-yl}-1H-pyrazole-4-carboxylic Acid]",20.1
3,"O=C(O)c1cnn(-c2nc3cc(OC(F)(F)F)cc(Br)c3[nH]2)c1 [Example 29, 1-(7-Bromo-5-trifluoromethoxy-1H-benzoimidazol-2-yl)-1H-pyrazole-4-carboxylic Acid]",57.5
4,"O=C(O)c1cnn(-c2nc3cc(C(F)(F)F)c(Cl)cc3[nH]2)c1 [Example 30, 1-(6-Chloro-5-trifluoromethyl-1H-benzoimidazol-2-yl)-1H-pyrazole-4-carboxylic Acid]",129
5,"O=C(O)c1cnn(-c2nc3cc(C(F)(F)F)c(F)cc3[nH]2)c1 [Example 129, 1-(6-Fluoro-5-trifluoromethyl-1H-benzoimidazol-2-yl)-1H-pyrazole-4-carboxylic Acid]",70.8
6,"CCCSc1cc2nc(-n3cc(C(=O)O)cn3)[nH]c2cc1F [Example 152, 1-(6-Fluoro-5-propylsulfanyl-1H-benzoimidazol-2-yl)-1H-pyrazole-4-carboxylic Acid]",91.4
